Test results taken from patent USRE48335E1, “Polymyxin derivatives as antimicrobial compounds” (priority 2014, dated 2020).
Converted amounts (≈) assume the structure as drawn. Positions of bridges follow the written chain, without caps; N, C: chain ends. Non-standard residues stand in square brackets, D forms with d. Residues, ends and D or L forms follow the SMILES beside them. *: point of attachment. X38 = O=C(c1ccc(Cl)cc1C(F)(F)F)*; X26 = Cc1ccc(CC(=O)*)cc1C; X28 = O=C(c1ccc(F)cc1Cl)*; X31 = O=C(c1ccc(Cl)cc1F)*; Octanoyl = CCCCCCCC(=O)*; X42 = Cc1ccc(C(=O)*)cc1F; Dab = NCC[C@H](N)C(=O)O; Abu = CC[C@H](N)C(=O)O; Dap = NC[C@H](N)C(=O)O

Legend:
Pseudomonas aeruginosa = tested on: Pseudomonas aeruginosa
Summary of the method: (§1)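 Lipopeptides, as trifluoroacetate salts, tested for MIC in CAMHB by CLSI broth microdilution, with polymyxin B (sulphate) as comparator.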

Enterobacter cloacae = tested on: Enterobacter cloacae
Summary of the method: as §1

Acinetobacter baumannii = tested on: Acinetobacter baumannii
Summary of the method: as §1

## CC[C@@H]1NC(=O)[C@@H](CC(C)C)NC(=O)[C@H](CCN)NC(=O)[C@@H](NC(=O)[C@H](CN)NC(=O)[C@@H](NC(=O)[C@H](CCN)NC(=O)c2ccc(C)c(F)c2)[C@@H](C)O)CCNC(=O)[C@H]([C@@H](C)O)NC(=O)[C@H](CCN)NC(=O)[C@H](CCN)NC1=O [Compound 102] (X42-[Dab]T[Dap][Dab][Dab][dL][Abu][Dab][Dab]T; lactam 4-C)
Pseudomonas aeruginosa
  Minimum inhibitory concentration, Pa ATCC 27853: 0.5 µg/mL (≈ 0.445 µM)
  Minimum inhibitory concentration, Pa FADDI-PA022: 0.5 µg/mL (≈ 0.445 µM)
  Minimum inhibitory concentration, Pa FADDI-PA025: 2 µg/mL (≈ 1.78 µM)
Enterobacter cloacae
  Minimum inhibitory concentration, Ec FADDI-EC001: 1 µg/mL (≈ 0.89 µM)
  Minimum inhibitory concentration, Ec FADDI-EC003: 0.5 µg/mL (≈ 0.445 µM)
  Minimum inhibitory concentration, Ec FADDI-EC006: 4 µg/mL (≈ 3.56 µM)
Acinetobacter baumannii
  Minimum inhibitory concentration, Ab A ATCC 17978: 1 µg/mL (≈ 0.89 µM)
  Minimum inhibitory concentration, Ab ATCC 19606: 2 µg/mL (≈ 1.78 µM)
  Minimum inhibitory concentration, Ab FADDI-AB034: 1 µg/mL (≈ 0.89 µM)

## CC[C@@H]1NC(=O)[C@@H](CC(C)C)NC(=O)[C@H](CCN)NC(=O)[C@@H](NC(=O)[C@H](CN)NC(=O)[C@@H](NC(=O)[C@H](CCN)NC(=O)Cc2ccc(C)c(C)c2)[C@@H](C)O)CCNC(=O)[C@H]([C@@H](C)O)NC(=O)[C@H](CCN)NC(=O)[C@H](CCN)NC1=O [Compound 103] (X26-[Dab]T[Dap][Dab][Dab][dL][Abu][Dab][Dab]T; lactam 4-C)
Pseudomonas aeruginosa
  Minimum inhibitory concentration, Pa ATCC 27853: 0.5 µg/mL (≈ 0.441 µM)
  Minimum inhibitory concentration, Pa FADDI-PA022: 0.5 µg/mL (≈ 0.441 µM)
  Minimum inhibitory concentration, Pa FADDI-PA025: 2 µg/mL (≈ 1.76 µM)
Enterobacter cloacae
  Minimum inhibitory concentration, Ec FADDI-EC001: <0.125 µg/mL
  Minimum inhibitory concentration, Ec FADDI-EC003: <0.125 µg/mL
  Minimum inhibitory concentration, Ec FADDI-EC006: 0.5 µg/mL (≈ 0.441 µM)
Acinetobacter baumannii
  Minimum inhibitory concentration, Ab A ATCC 17978: 0.5 µg/mL (≈ 0.441 µM)
  Minimum inhibitory concentration, Ab ATCC 19606: 0.5 µg/mL (≈ 0.441 µM)
  Minimum inhibitory concentration, Ab FADDI-AB034: 0.5 µg/mL (≈ 0.441 µM)

## CCCCCCCC(=O)N[C@@H](CCN)C(=O)N[C@H](C(=O)N[C@@H](CN)C(=O)N[C@H]1CCNC(=O)[C@H]([C@@H](C)O)NC(=O)[C@H](CCN)NC(=O)[C@H](CCN)NC(=O)[C@H](C)NC(=O)[C@@H](Cc2ccccc2)NC(=O)[C@H](CCN)NC1=O)[C@@H](C)O [Compound 128] (Octanoyl-[Dab]T[Dap][Dab][Dab][dF]A[Dab][Dab]T; lactam 4-C)
Pseudomonas aeruginosa
  Minimum inhibitory concentration, Pa ATCC 27853: 0.5 µg/mL (≈ 0.441 µM)
  Minimum inhibitory concentration, Pa FADDI-PA022: 1 µg/mL (≈ 0.882 µM)
  Minimum inhibitory concentration, Pa FADDI-PA025: 4 µg/mL (≈ 3.53 µM)
Enterobacter cloacae
  Minimum inhibitory concentration, Ec FADDI-EC001: <0.125 µg/mL
  Minimum inhibitory concentration, Ec FADDI-EC003: 0.25 µg/mL (≈ 0.221 µM)
  Minimum inhibitory concentration, Ec FADDI-EC006: 0.5 µg/mL (≈ 0.441 µM)
Acinetobacter baumannii
  Minimum inhibitory concentration, Ab A ATCC 17978: 0.25 µg/mL (≈ 0.221 µM)
  Minimum inhibitory concentration, Ab ATCC 19606: 0.25 µg/mL (≈ 0.221 µM)
  Minimum inhibitory concentration, Ab FADDI-AB034: 0.25 µg/mL (≈ 0.221 µM)

## CC[C@@H]1NC(=O)[C@@H](CC(C)C)NC(=O)[C@H](CCN)NC(=O)[C@@H](NC(=O)[C@H](CN)NC(=O)[C@@H](NC(=O)[C@H](CCN)NC(=O)c2ccc(Cl)cc2F)[C@@H](C)O)CCNC(=O)[C@H]([C@@H](C)O)NC(=O)[C@H](CCN)NC(=O)[C@H](CCN)NC1=O [Compound 134] (X31-[Dab]T[Dap][Dab][Dab][dL][Abu][Dab][Dab]T; lactam 4-C)
Pseudomonas aeruginosa
  Minimum inhibitory concentration, Pa ATCC 27853: 0.5 µg/mL (≈ 0.437 µM)
  Minimum inhibitory concentration, Pa FADDI-PA022: 1 µg/mL (≈ 0.874 µM)
  Minimum inhibitory concentration, Pa FADDI-PA025: 1 µg/mL (≈ 0.874 µM)
Enterobacter cloacae
  Minimum inhibitory concentration, Ec FADDI-EC001: 0.25 µg/mL (≈ 0.219 µM)
  Minimum inhibitory concentration, Ec FADDI-EC003: <0.125 µg/mL
  Minimum inhibitory concentration, Ec FADDI-EC006: <0.125 µg/mL
Acinetobacter baumannii
  Minimum inhibitory concentration, Ab A ATCC 17978: 2 µg/mL (≈ 1.75 µM)
  Minimum inhibitory concentration, Ab ATCC 19606: 2 µg/mL (≈ 1.75 µM)
  Minimum inhibitory concentration, Ab FADDI-AB034: 0.5 µg/mL (≈ 0.437 µM)

## CC[C@@H]1NC(=O)[C@@H](CC(C)C)NC(=O)[C@H](CCN)NC(=O)[C@@H](NC(=O)[C@H](CN)NC(=O)[C@@H](NC(=O)[C@H](CCN)NC(=O)c2ccc(F)cc2Cl)[C@@H](C)O)CCNC(=O)[C@H]([C@@H](C)O)NC(=O)[C@H](CCN)NC(=O)[C@H](CCN)NC1=O [Compound 135] (X28-[Dab]T[Dap][Dab][Dab][dL][Abu][Dab][Dab]T; lactam 4-C)
Pseudomonas aeruginosa
  Minimum inhibitory concentration, Pa ATCC 27853: 0.5 µg/mL (≈ 0.437 µM)
  Minimum inhibitory concentration, Pa FADDI-PA022: 1 µg/mL (≈ 0.874 µM)
  Minimum inhibitory concentration, Pa FADDI-PA025: 2 µg/mL (≈ 1.75 µM)
Enterobacter cloacae
  Minimum inhibitory concentration, Ec FADDI-EC001: <0.125 µg/mL
  Minimum inhibitory concentration, Ec FADDI-EC003: <0.125 µg/mL
  Minimum inhibitory concentration, Ec FADDI-EC006: <0.125 µg/mL
Acinetobacter baumannii
  Minimum inhibitory concentration, Ab A ATCC 17978: 1 µg/mL (≈ 0.874 µM)
  Minimum inhibitory concentration, Ab ATCC 19606: 4 µg/mL (≈ 3.5 µM)
  Minimum inhibitory concentration, Ab FADDI-AB034: 1 µg/mL (≈ 0.874 µM)

## CC[C@@H]1NC(=O)[C@@H](CC(C)C)NC(=O)[C@H](CCN)NC(=O)[C@@H](NC(=O)[C@H](CN)NC(=O)[C@@H](NC(=O)[C@H](CCN)NC(=O)c2ccc(Cl)cc2C(F)(F)F)[C@@H](C)O)CCNC(=O)[C@H]([C@@H](C)O)NC(=O)[C@H](CCN)NC(=O)[C@H](CCN)NC1=O [Compound 136] (X38-[Dab]T[Dap][Dab][Dab][dL][Abu][Dab][Dab]T; lactam 4-C)
Pseudomonas aeruginosa
  Minimum inhibitory concentration, Pa ATCC 27853: 0.5 µg/mL (≈ 0.419 µM)
  Minimum inhibitory concentration, Pa FADDI-PA022: 2 µg/mL (≈ 1.68 µM)
  Minimum inhibitory concentration, Pa FADDI-PA025: 1 µg/mL (≈ 0.838 µM)
Enterobacter cloacae
  Minimum inhibitory concentration, Ec FADDI-EC001: <0.125 µg/mL
  Minimum inhibitory concentration, Ec FADDI-EC003: <0.125 µg/mL
  Minimum inhibitory concentration, Ec FADDI-EC006: 0.25 µg/mL (≈ 0.209 µM)
Acinetobacter baumannii
  Minimum inhibitory concentration, Ab A ATCC 17978: 0.5 µg/mL (≈ 0.419 µM)
  Minimum inhibitory concentration, Ab ATCC 19606: 0.5 µg/mL (≈ 0.419 µM)
  Minimum inhibitory concentration, Ab FADDI-AB034: 0.25 µg/mL (≈ 0.209 µM)
